Results: US9060520B2, “Domestic animal parasite-repellent device” (priority 2007, dated 2015)

Assay: Release kinetics at 38° C. in oven, by daily weighing (Examples 5-8, 10, 11)
Format: physicochemical

Row | Compound | release as of the fourth day (EVA object with DIAZINON and GIN3, for the remaining 70%) [% per day] | amount released the first three days (EVA object with DIAZINON and GIN3 granules blended 40/60, FIG. 7) [%] | peak of release of LINALOL relative to the bracelet, in absolute value (EVA/PEBAX matrix 30% LINALOL vs PVC bracelet 15% LINALOL, oven 38° C., FIG. 11) [times]
1 | CCOP(=S)(OCC)Oc1cc(C)nc(C(C)C)n1 [DIAZINON] | 1.30 | 28 | 
2 | C=CC(C)(O)CCC=C(C)C (stereo not drawn) [LINALOL] |  |  | 16
